Reference: patent US9127040B2, “Regulation of sodium channels by PLUNC proteins” (The University of North Carolina at Chapel Hill, priority 2011, dated 2015)
Ends that are not written are not given here.

Experiments:
Assay in all cases: Whole-cell patch-clamp currents in CHO cells stably expressing ASIC
Assay type in all cases: cell-based
Conditions in all cases: 10 μM S18
human ASIC2a = target: T1, human ASIC2a (Homo sapiens, UniProt Q16515)
T1 construct: expressed in transfected cells
Description: (§1) Previously described cell lines expressing human ASIC1a, human ASIC2a and rat ASIC3 were used in these experiments (Poirot, J. Biol. Chem. 279: 38448 (2004))). Electrophysiological measurements were carried out with an EPC10 patch-clamp amplifier (HEKA Electronics, Lambrecht, Germany) as previously described (Blanchard et al., Pflugers Arch. 461:123 (2011)).
(§2) Whole-cell currents were measured from CHO cells stably expressing acid-sensing ion channel (ASIC) subunits, voltage clamped to −60 mV. Stimulations lasted 5 s and were performed every 45 s. Cells were stimulated three times with pH 6.6 (ASIC1a and -3) or pH 4 (ASIC2a). Between stimulations, cells were returned to a pH 7.4 conditioning solution for […] recovery from inactivation. The conditioning solution was then switched to a pH 7.4 solution containing 10 μM S18. Three stimulations in the presence of 10 μM S18 were performed before washing off the peptide. Current amplitudes of the above described experiments were normalized to the first control value and plotted as a function of time (FIG. 28B). S18 was added at T=0 s. ASIC1a=▪, ASIC2a=●, ASIC3=▴, all n=3. Cells were incubated for 40 s in a pH 7.1 (ASIC1a and -3) or 5.6 (ASIC2a) conditioning solution, then activated using an acidic stimulus (pH 5 for ASIC1a and -3, and pH 4 for ASIC2a) (FIG. 28C). Experiments were performed with or without 10 μM S18 in the conditioning solution. Current amplitudes measured during the acidic stimulus were normalized to the control amplitude obtained with a pH 7.4 conditioning solution. Open bars=control, closed bars=S18, all n=3-4. […] Stimulations were performed every 45 s. The protocol was performed with or without 10 μM S18 in all solutions. The average current is plotted as a function of time. […] Control=∘, S18=▪, all n=3-5.

human ASIC1a = target: T2, human ASIC1a (Homo sapiens, UniProt P78348)
T2 construct: expressed in transfected cells
Description: as §1, §2

rat ASIC3 = target: T3, rat ASIC3 (Rattus norvegicus, UniProt O35240)
T3 construct: expressed in transfected cells
Description: as §1, §2

T3 sequence (O35240 whole entry): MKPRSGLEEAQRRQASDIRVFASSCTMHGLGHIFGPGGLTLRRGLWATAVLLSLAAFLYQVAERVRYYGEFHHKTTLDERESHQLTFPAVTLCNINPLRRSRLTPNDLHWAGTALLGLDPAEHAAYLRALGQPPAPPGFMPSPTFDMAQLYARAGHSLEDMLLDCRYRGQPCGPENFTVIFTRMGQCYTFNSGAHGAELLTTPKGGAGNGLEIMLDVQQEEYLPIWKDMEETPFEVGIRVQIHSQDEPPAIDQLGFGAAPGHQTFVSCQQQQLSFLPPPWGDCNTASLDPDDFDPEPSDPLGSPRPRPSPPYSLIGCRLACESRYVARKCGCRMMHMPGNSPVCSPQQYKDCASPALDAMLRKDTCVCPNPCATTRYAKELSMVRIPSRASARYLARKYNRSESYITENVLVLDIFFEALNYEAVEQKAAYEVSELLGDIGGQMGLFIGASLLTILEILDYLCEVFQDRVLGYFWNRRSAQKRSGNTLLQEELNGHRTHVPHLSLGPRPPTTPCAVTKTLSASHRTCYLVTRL
T1 sequence (Q16515 whole entry): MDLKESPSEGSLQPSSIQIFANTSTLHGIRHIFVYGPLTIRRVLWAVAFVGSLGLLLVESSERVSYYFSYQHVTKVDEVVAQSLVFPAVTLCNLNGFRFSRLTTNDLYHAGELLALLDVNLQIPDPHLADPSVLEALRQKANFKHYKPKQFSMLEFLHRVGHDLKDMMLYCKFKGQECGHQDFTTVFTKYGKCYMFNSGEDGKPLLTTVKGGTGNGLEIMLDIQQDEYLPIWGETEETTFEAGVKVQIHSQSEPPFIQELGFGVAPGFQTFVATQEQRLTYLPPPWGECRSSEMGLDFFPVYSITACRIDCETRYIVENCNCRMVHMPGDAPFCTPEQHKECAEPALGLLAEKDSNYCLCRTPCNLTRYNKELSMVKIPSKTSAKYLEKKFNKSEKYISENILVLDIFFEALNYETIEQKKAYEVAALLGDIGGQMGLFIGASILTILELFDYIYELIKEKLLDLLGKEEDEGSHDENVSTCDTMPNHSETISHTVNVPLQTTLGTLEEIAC
T2 sequence (P78348 whole entry): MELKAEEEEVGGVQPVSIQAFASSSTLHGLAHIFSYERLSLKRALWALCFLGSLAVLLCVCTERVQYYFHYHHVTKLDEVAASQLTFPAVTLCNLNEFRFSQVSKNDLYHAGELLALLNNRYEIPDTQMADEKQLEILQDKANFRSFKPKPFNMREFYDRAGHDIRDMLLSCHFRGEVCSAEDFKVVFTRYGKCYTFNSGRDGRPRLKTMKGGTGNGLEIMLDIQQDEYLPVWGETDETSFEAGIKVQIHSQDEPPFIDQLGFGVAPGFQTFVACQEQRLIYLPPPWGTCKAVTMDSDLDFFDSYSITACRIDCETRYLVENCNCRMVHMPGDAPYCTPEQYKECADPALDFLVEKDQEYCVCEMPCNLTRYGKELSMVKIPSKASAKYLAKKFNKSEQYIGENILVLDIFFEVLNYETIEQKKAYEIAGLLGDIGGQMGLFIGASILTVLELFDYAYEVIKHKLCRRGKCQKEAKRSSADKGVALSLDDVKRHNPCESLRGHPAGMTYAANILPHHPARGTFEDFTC

GGLPVPLDQTLPLNVNPA [S18]
does not Affect the Function: function of ASIC2a channels (human ASIC2a) | function of ASIC1a channels (human ASIC1a) | function of ASIC3 channels (rat ASIC3)
